The nature of data set [1]: Cytotoxicity assay, proliferation of exponentially growing MDBK cells (MTS/PMS). Format: cell-based, bovine. Conditions: bovine. The method, then: Assays were carried out, as described previously.
In another data set the test system is BVDV NADL virus. Put plainly: CPE-based antiviral assay, BVDV NADL in MDBK cells (MTS/PMS). Conditions: for EC50: Bovine viral diarrhea virus isolates and strains, MDBK, 72 h; for S.I.: selectivity index, CC50 vs EC50.
Where [2] appears, read: sheet CSFCII#, potency relative to TO502-2403 (EC50 0.2 µM).
Setting [3] is: sheet CSFCI#, potency relative to TO505-6180 (EC50 0.07 µM).

Here are results for 30 molecules from article PMC7144022, “Quinolinecarboxamides Inhibit the Replication of the Bovine Viral Diarrhea Virus by Targeting a Hot Spot for the Inhibition of Pestivirus Replication in the RNA-Dependent RNA Polymerase” (Molecules, 2020).

Molecules are shown by their SMILES.

On to `COc1ccc2nc(NC(=O)c3cc(-c4ccco4)nc4ccc(OC(F)(F)F)cc34)sc2c1` [CSFC-77, FC(F)(F)Oc1cc2c(cc1)nc(cc2C(=O)Nc3nc4ccc(cc4s3)OC)c5ccco5], for which the CC50 (in general, the concentration giving 50% cytotoxicity) at 5 days in data set [1] is above 100 µM. In the data set with BVDV NADL virus, a half-maximal response (EC50) required 100 µM and the S.I. turned out to be 1. The fold increase in the data set on BVDV NADL virus (setting [2]) came to 0.002.
With `O=C(Nc1ccccc1)c1cc(-c2ccccc2)nc2ccccc12` [CSFC-134, O=C(Nc1ccccc1)c1cc(nc2ccccc12)c1ccccc1], the CC50 at 5 days in data set [1] is above 100 µM. For the same molecule, in the data set with BVDV NADL virus, the EC50 (usually the midpoint of the concentration-response curve) is above 100 µM and the S.I. came out at 1. Besides, in the data set with BVDV NADL virus (setting [3]), the fold increase was found to be 0.0007.
Consider `O=C(Nc1nc2ccc(C(F)(F)F)cc2s1)c1cc(-c2ccccc2)nc2ccccc12` [CSFC-94, FC(F)(F)c1ccc2nc(sc2c1)NC(=O)c4cc(nc3ccccc34)c5ccccc5], for which the CC50 at 5 days in data set [1] was above 100 µM. In the data set with BVDV NADL virus, this molecule displayed an EC50 of 100 µM and a S.I. of 1. The fold increase in the data set with BVDV NADL virus (setting [2]) amounted to 0.002.
For `Cc1csc(-c2cc(C(=O)Nc3nc4c(C)cccc4s3)c3ccccc3n2)c1` [CSFC-50, Cc1cc(sc1)c3nc2ccccc2c(c3)C(=O)Nc4nc5c(C)cccc5s4] the same measures were above 100 µM, 1.9 µM, 53 and 0.11.
On to `Cc1ccc(-c2cc(C(=O)Nc3ccn(-c4ccccc4)n3)c3ccccc3n2)o1` [CSFC-51, Cc1ccc(o1)c3nc2ccccc2c(c3)C(=O)Nc4ccn(n4)c5ccccc5], for which, in data set [1], the CC50 at 5 days is above 100 µM. Further, in the data set with BVDV NADL virus, the EC50 is 15.2 µM and the S.I. is 7. In addition, in the data set on BVDV NADL virus (setting [2]), the fold increase is 0.0132.
For `O=C(Nc1ccn(-c2ccccc2F)n1)c1cc(-c2ccccc2)nc2ccccc12` [CSFC-125, Fc1ccccc1n2ccc(n2)NC(=O)c4cc(nc3ccccc34)c5ccccc5] the same measures were above 100 µM, 1.6 µM, 63 and 0.13.
The corresponding values for `Cc1ccc(-c2csc(NC(=O)c3cc(-c4ccccc4)nc4ccccc34)n2)cc1` [CSFC-114, O=C(Nc1nc(cs1)c2ccc(C)cc2)c4cc(nc3ccccc34)c5ccccc5] are above 100 µM, 1.1 µM, 91 and 0.18.
In data set [1], `COc1ccc(-n2ccc(NC(=O)c3cc(-c4ccc(F)cc4)nc4ccccc34)n2)cc1` [CSFC-91, Fc1ccc(cc1)c3nc2ccccc2c(c3)C(=O)Nc4ccn(n4)c5ccc(OC)cc5] registered a 50% cytotoxic concentration (CC50) at 5 days above 100 µM. In the data set with BVDV NADL virus, this molecule yielded an EC50 of 1 µM and a S.I. of 100. In the data set with BVDV NADL virus (setting [2]), the fold increase was determined as 0.20.
In data set [1], `O=C(Nc1nc2c(Cl)cccc2s1)c1cc(-c2ccccc2)nc2ccccc12` [CSFC-15, Clc1cccc2sc(nc21)NC(=O)c1cc(nc2ccccc21)c1ccccc1] registered a CC50 at 5 days above 100 µM. In the data set on BVDV NADL virus, this molecule came in with a concentration giving a half-maximal response (EC50) of 0.8 µM and a S.I. of 125. In addition, the fold increase in the data set with BVDV NADL virus (setting [3]) stood at 0.09.
For `Cc1cc(C)c2sc(NC(=O)c3cc(-c4ccccc4)nc4ccccc34)nc2c1` [CSFC-149, Cc1cc2nc(NC(=O)c3cc(nc4ccccc43)c3ccccc3)sc2c(C)c1] the same measures were above 100 µM, 0.2 µM, 500 and 0.35.
The molecule `Cc1ccc(-n2ccc(NC(=O)c3cc(-c4cccnc4)nc4ccccc34)n2)cc1` [CSFC-140, Cc1ccc(cc1)n2ccc(n2)NC(=O)c4cc(nc3ccccc34)c5cccnc5] came in with a CC50 at 5 days in data set [1] of 16 µM. The molecule also had an EC50 with BVDV NADL virus of 0.02 µM. In addition, the fold increase in the data set with BVDV NADL virus (setting [2]) was determined as 10.00.
Take `Cc1cccc(-n2ccc(NC(=O)c3cc(-c4cccnc4)nc4ccccc34)n2)c1` [CSFC-130, Cc1cccc(c1)n2ccc(n2)NC(=O)c4cc(nc3ccccc34)c5cccnc5]: half-maximal cytotoxicity in data set [1] (CC50 at 5 days) was put at 5 µM. Moreover, the EC50 with BVDV NADL virus was 0.02 µM. Besides, the fold increase in the data set on BVDV NADL virus (setting [2]) is listed as 10.00.
In turn, `COc1ccc2nc(NC(=O)c3cc(-c4ccco4)nc4ccc(Cl)cc34)sc2c1` [CSFC-81, Clc1cc2c(cc1)nc(cc2C(=O)Nc3nc4ccc(cc4s3)OC)c5ccco5] returned a CC50 at 5 days in data set [1] above 100 µM. In the data set with BVDV NADL virus, this molecule registered an EC50 of 24.5 µM and a S.I. of 4. The fold increase in the data set on BVDV NADL virus (setting [2]) is listed as 0.00816.
`Cc1cccc2sc(NC(=O)c3cc(-c4cccs4)nc4ccccc34)nc12` [CSFC-46, Cc1cccc2sc(nc12)NC(=O)c4cc(nc3ccccc34)c5cccs5] had a CC50 at 5 days in data set [1] above 100 µM. For the same molecule, in the data set with BVDV NADL virus, the response was half-maximal at 0.2 µM (EC50) and the S.I. is recorded as 500. Besides, the fold increase in the data set with BVDV NADL virus (setting [2]) was found to be 1.00.
In turn, `COc1ccc2nc(NC(=O)c3cc(-c4ccco4)nc4c(C)cc(C)cc34)sc2c1` [CSFC-65, O=C(c2cc(nc1c2cc(cc1C)C)c3ccco3)Nc4nc5ccc(cc5s4)OC] came in with a CC50 at 5 days in data set [1] above 100 µM. In the data set on BVDV NADL virus, this molecule had an EC50 of 5.8 µM and a S.I. of 17. In addition, the fold increase in the data set on BVDV NADL virus (setting [2]) turned out to be 0.0345.
Molecule `O=C(Nc1nc2ccccc2s1)c1cc(-c2ccccc2)nc2ccccc12` [CSFC-13, O=C(Nc1nc2ccccc2s1)c1cc(nc2ccccc21)c1ccccc1] returned a CC50 at 5 days in data set [1] above 100 µM. In the data set on BVDV NADL virus, this molecule had an EC50 of 1.2 µM. Moreover, the fold increase in the data set on BVDV NADL virus (setting [3]) stood at 0.06.
In the case of `Cc1noc(C)c1NC(=O)c1cc(-c2ccco2)nc2ccccc12` [CSFC-37, O=C(Nc1c(C)onc1C)c3cc(nc2ccccc23)c4ccco4], the CC50 at 5 days in data set [1] was above 100 µM. Moreover, in the data set on BVDV NADL virus, the half-maximal effective concentration (EC50) is 34.2 µM and the S.I. worked out at 3. The fold increase in the data set with BVDV NADL virus (setting [2]) is listed as 0.00585.
The molecule `Cc1ccc(-c2cc(C(=O)Nc3nc4c(C)cccc4s3)c3ccccc3n2)o1` [CSFC-49, Cc1ccc(o1)c3nc2ccccc2c(c3)C(=O)Nc4nc5c(C)cccc5s4] returned a CC50 at 5 days in data set [1] above 100 µM. In the data set with BVDV NADL virus, this molecule showed an EC50 of 0.7 µM and a S.I. of 143. Besides, the fold increase with BVDV NADL virus (setting [2]) came out at 0.29.
In data set [1], `Cc1cccc2sc(NC(=O)c3cc(-c4cccs4)nc4c(Cl)cccc34)nc12` [CSFC-98, Clc5cccc1c5nc(cc1C(=O)Nc2nc3c(C)cccc3s2)c4cccs4] displayed a CC50 at 5 days above 100 µM. Besides, in the data set on BVDV NADL virus, the midpoint of the response, the EC50, lay at 0.2 µM and the S.I. worked out at 500. In the data set with BVDV NADL virus (setting [2]), the fold increase was 1.00.
The corresponding values for `CCOc1ccc2nc(NC(=O)c3cc(-c4ccccc4)nc4ccccc34)sc2c1` [CSFC-58, CCOc1ccc2nc(sc2c1)NC(=O)c4cc(nc3ccccc34)c5ccccc5] are above 100 µM, 3.3 µM, 30 and 0.06.
Take `O=C(Nc1ccn(-c2ccccc2)n1)c1cc(-c2cccc(F)c2)nc2ccccc12` [CSFC-69, Fc1cccc(c1)c3nc2ccccc2c(c3)C(=O)Nc4ccn(n4)c5ccccc5]: the CC50 at 5 days in data set [1] is above 100 µM. Besides, in the data set with BVDV NADL virus, the EC50 was 0.1 µM and the S.I. is on record as 1000. In addition, in the data set on BVDV NADL virus (setting [2]), the fold increase was found to be 2.00.
`O=C(Nc1ccn(-c2ccccc2)n1)c1cc(-c2cccs2)nc2ccc(F)cc12` [CSFC-93, O=C(Nc1ccn(n1)c2ccccc2)c4cc(nc3ccc(F)cc34)c5cccs5] had a CC50 at 5 days in data set [1] above 100 µM. For the same molecule, in the data set on BVDV NADL virus, the midpoint of the response, the EC50, lay at 0.06 µM and the S.I. was 1667. Also, the fold increase in the data set with BVDV NADL virus (setting [2]) was determined as 3.33.
As to `Cc1cccc2sc(NC(=O)c3cc(-c4ccccc4Cl)nc4ccccc34)nc12` [CSFC-113, Clc1ccccc1c3nc2ccccc2c(c3)C(=O)Nc4nc5c(C)cccc5s4], in data set [1], the CC50 at 5 days was above 100 µM. Also, in the data set on BVDV NADL virus, the midpoint of the response, the EC50, lay at 0.4 µM and the S.I. is reported as 250. Besides, in the data set on BVDV NADL virus (setting [2]), the fold increase came out at 0.50.
For `O=C(Nc1ccn(-c2ccccc2)n1)c1cc(-c2ccco2)nc2ccccc12` [CSFC-44, O=C(Nc1ccn(n1)c2ccccc2)c4cc(nc3ccccc34)c5ccco5] the same measures were 23 µM, 2.3 µM, 10 and 0.09.
In data set [1], `Cc1ccc2nc(NC(=O)c3cc(O)nc4ccccc34)sc2c1` [CSFC-31, Oc1nc2ccccc2c(c1)C(=O)Nc1nc2ccc(C)cc2s1] yielded a half-maximal cytotoxic concentration (CC50) at 5 days above 100 µM. In the data set with BVDV NADL virus, this molecule had an EC50 above 100 µM and a S.I. of 1. Further, in the data set with BVDV NADL virus (setting [3]), the fold increase was found to be 0.0007.
With `Cc1ccc2nc(NC(=O)c3ccnc4ccccc34)sc2c1` [CSFC-17, Cc1ccc2nc(sc2c1)NC(=O)c4ccnc3ccccc34], in data set [1], the CC50 at 5 days was above 100 µM. In the data set with BVDV NADL virus, the EC50 was 100 µM and the S.I. worked out at 1. Also, in the data set on BVDV NADL virus (setting [2]), the fold increase is listed as 0.002.
The molecule `CS(=O)(=O)c1ccc2nc(NC(=O)c3cc(-c4ccccc4)nc4ccccc34)sc2c1` [CSFC-56, CS(=O)(=O)c1ccc2nc(sc2c1)NC(=O)c4cc(nc3ccccc34)c5ccccc5] had a CC50 at 5 days in data set [1] above 100 µM. In the data set on BVDV NADL virus, this molecule yielded an EC50 of 100 µM and a S.I. of 1. For the same molecule, the fold increase in the data set on BVDV NADL virus (setting [2]) is recorded as 0.002.
In data set [1], `Cc1ccc2nc(NC(=O)c3cc(-c4ccccc4)nc4ccccc34)sc2c1` [CSFC-2, Cc1ccc2nc(NC(=O)c3cc(nc4ccccc43)c3ccccc3)sc2c1] yielded a CC50 at 5 days above 100 µM. In the data set on BVDV NADL virus, this molecule displayed a 50% effective concentration (EC50) of 5.7 µM and a S.I. of 18. Also, the fold increase in the data set on BVDV NADL virus (setting [3]) came to 0.0123.
For `Cc1ccc2nc(NC(=O)c3ccncc3)sc2c1` [CSFC-22, Cc1ccc2nc(NC(=O)c3ccncc3)sc2c1] the same measures were above 100 µM, above 100 µM, 1 and 0.0007.
On to `O=C(Nc1ccn(-c2ccccc2)n1)c1cc(-c2ccccc2F)nc2ccccc12` [CSFC-76, Fc1ccccc1c3nc2ccccc2c(c3)C(=O)Nc4ccn(n4)c5ccccc5], for which the half-maximal cytotoxic concentration (CC50) at 5 days in data set [1] was above 100 µM. In the data set with BVDV NADL virus, the EC50 is 0.1 µM and the S.I. is recorded as 1000. Moreover, the fold increase in the data set with BVDV NADL virus (setting [2]) was found to be 2.00.
